Experimental data reported in US7407763B2, “Systems and methods for detecting and regulating metastasis” (The Regents of the University of Michigan, priority 2004, dated 2008).

Key:
RKIP mRNA expression = RKIP mRNA expression in RWPE cells by real-time RT-PCR; format: cell-based, human
putative RKIP ARE = settings: RWPE nuclear extracts, 5 nM DHT, as early as 30 min
Experimental: The reaction was allowed to proceed for 30 min at room temperature.

human RKIP promoter = settings: RWPE cells, DHT 5 nM, 10 nM, 24 h, compared to basal activity
C4-2B cells = assay: In vitro invasion assay with protein kinase inhibitors; format: cell-based, human; settings: in vitro invasion through matrix, C4-2B cells (FIG. 4)
Experimental: The invasiveness of control and sense or antisense-transfected cell clones was evaluated in 24-well transwell chambers (Costar, Cambridge, Mass.) as directed by the manufacturer. Briefly, the upper and lower culture compartments were separated by polycarbonate filters with 8-μm pore size. Some wells were coated with 100 μg/cm^2 collagen matrix (MATRIGEL, Collaborative Biomedical Products, Bedford, Mass.) that was reconstituted by adding 0.5 ml of serum-free T medium for 2 hours. […] Cell penetration through the membrane was quantified by staining the porous membrane with a Diff-Quik stain kit. The numbers of cells that penetrated through the membrane were counted in five microscopic fields (×200) per filter. Invasive ability was then determined as the proportion of cells that invaded through the matrix-coated membrane relative to the number of cells that migrated through the uncoated membrane (baseline migration). […]
Furthermore, because RKIP inhibits tumor invasiveness, it was investigated whether RKIP exerts its metastasis suppressor gene function through regulation of MEK activation. […] Accordingly, the effect of a variety of kinase inhibitors was evaluated, including a MEK inhibitor (PD098059) on in vitro invasion. […]

RKIP mRNA levels = RKIP mRNA levels in LNCaP cells by real time PCR; format: cell-based, human; settings: IL-6 50 ng/ml, 6 or 24 hours (FIG. 7)
Experimental: LNCaP cells were plated in culture dishes and treated with IL-6 (50 ng/ml) or vehicle for 6 or 24 hours. Total RNA was collected and subjected to real time PCR for RKIP mRNA levels. RKIP mRNA levels were normalized to β-galactosidase mRNA levels.

## C[C@@H]1C[C@@H]([C@H](O)CC2CC(=O)NC(=O)C2)C(=O)[C@@H](C)C1 [CHX, cycloheximide]
RKIP mRNA expression; RWPE cells, 24 h, CHX alone (FIG. 12C)
  expression of RKIP, treatment alone: did not change the expression of RKIP

## CC(O)(CS(=O)(=O)c1ccc(F)cc1)C(=O)Nc1ccc(C#N)c(C(F)(F)F)c1 (stereo not drawn) [Casodex]
RKIP mRNA expression; RWPE cells, 24 h, casodex in the presence of DHT (FIG. 12B)
  effect on DHT induction of RKIP mRNA expression: substantially reduced

## C[C@]12CCC(=O)C[C@@H]1CC[C@@H]1[C@@H]2CC[C@]2(C)[C@@H](O)CC[C@@H]12 [DHT, dihydrotestosterone]
RKIP mRNA expression
  RKIP expression in cells treated with CHX: increase in RKIP expression
  increase in RKIP mRNA at 1 nM: significant (P<0.01) increase
  induction of RKIP expression at 0.1 nM: almost no induction
  maximum induction of RKIP mRNA expression: 1.5 fold
RKIP mRNA expression; RWPE cells, 24 h, >=5 nM DHT
  induction of RKIP expression at saturating amounts (>=5 nM): significant (P<0.01) induction
RKIP mRNA expression; RWPE cells, 24 h, various concentrations of DHT
  RKIP mRNA expression versus DHT concentration: dose-dependent increase
Putative RKIP ARE
  DNA binding activity to RKIP ARE probe: rapid increase in DNA binding activity
Human RKIP promoter
  increase in luciferase activity of RKIP promoter plasmid: approximately 3 fold

## COc1cccc(-c2cc(=O)c3ccccc3o2)c1N [PD098059]
C4-2B cells
  decrease of invasive ability of C4-2B cells: 41%

## IL-6: the cytokine interleukin-6
RKIP mRNA levels
  RKIP expression in LNCaP prostate cancer cells: reduces RKIP expression
